{"source": "patent US20200165194A1", "about": "“ADDITIVE COMPOSITION FOR CULTURE MEDIUM, ADDITIVE COMPOUND FOR CULTURE MEDIUM, AND METHOD FOR CULTURE OF CELLS OR TISSUE USING SAME” (NISSAN CHEMICAL CORPORATION, priority 2017, published 2020)", "assay_type_in_all_cases": "cell-based", "key": {"[1]": {"system": "human ovarian cancer cell line SKOV3", "assay": "Action on SKOV3 cell-1: 3D (deacylated gellan gum) and 2D culture, HB-EGF medium, ATP assay (Experimental Example 2)", "details": "for relative value of RLU (number of viable cells): 4 days, compound non-addition = 100%", "procedure": "According to the method of patent document 1 (WO 2014/017513), a composition of McCoy's 5a medium (manufactured by Sigma-Aldrich) containing 0.015% (w/v) deacylated gellan gum (KELCOGEL CG-LA, manufactured by Sansho Co., Ltd.) and 15% (v/v) FBS, 100 ng/mL human HB-EGF (manufactured by PEPROTECH) was prepared by a homomixer. As a control, a non-addition medium composition not containing deacylated gellan gum was prepared. Then, human ovarian cancer cell line SKOV3 (manufactured by DS PHARMA BIO MEDICAL) was suspended in the above-mentioned medium composition added with deacylated gellan gum, and dispensed into the wells of a 384 well flat bottom Ultr-low Attachment surface microplate (manufactured by Corning Incorporated, #3827) at 1000 cells/40 μL/well (three-dimensional culture (3D)). In a single layer culture (2D), human ovarian cancer cell line SKOV3 was suspended in the above-mentioned medium is composition not containing deacylated gellan gum, and dispensed into the wells of a 384 well flat bottom microplate (manufactured by Corning Incorporated, #3712) at 400 cells/40 L per well. Each plate was cultured in a standing state in a CO2 incubator (37° C., 5% CO2). On day 1 of culture, the compound to be used in the present invention dissolved in dimethyl sulfoxide (DMSO) was added by 4.4 μL each at a final concentration of 0, 0.5, 1, 5, 10, 20 μM, and continuously cultured for 4 days. An ATP reagent (44.4 μL) (CellTiter-Glo (registered trade mark) Luminescent Cell Viability Assay, manufactured by Promega) was added to and suspended in the culture medium on day 5, and the suspension was stood for 15 min at room temperature. The luminescence intensity (RLU value) was measured by FlexStation3 (manufactured by Molecular Devices) and the luminescence value of the medium alone was subtracted to measure the number of viable cells."}, "[2]": {"system": "human alveolar basal epithelial adenocarcinoma-derived cell line A549", "assay": "Various human cancer cells-1, 3D culture, WST-8 (Experimental Example 5)", "details": "4 days", "source_text": "(§1) Various human-derived cancer cells were precultured (single layer culture) in respective media shown below. Human uterus cervix cancer-derived cell line HeLa (manufactured by American Type Culture Collection (hereinafter indicated as ATCC), 10% fetal bovine serum (FBS, manufactured by Corning)-containing Dulbecco's Modified Eagle's Medium (hereinafter abbreviated as DMEM) (manufactured by Wako Pure Chemical Industries, Ltd.)), human malignant melanoma-derived cell line A375 (manufactured by ATCC, 10% FBS-containing DMEM), human epithelial-like cell cancer-derived cell line A431 (manufactured by ATCC, 10% FBS and 1% MEM non-essential amino acid solution (MEM Non-Essential Amino Acids solution (hereinafter abbreviated as NEAA) (manufactured by Wako Pure Chemical Industries, Ltd.))-containing Eagle's Minimum Essential Medium (hereinafter abbreviated as EMEM) (manufactured by Wako Pure Chemical Industries, Ltd.)), human stomach adenocarcinoma-derived cell line AGS (manufactured by DS PHARMA BIO MEDICAL, 10% FBS-containing Ham's F-12 (manufactured by Wako Pure Chemical Industries, Ltd.)), human prostate cancer-derived cell line LNCaP clone FGC (manufactured by ATCC, 10% FBS-containing RPMI1640 (manufactured by Wako Pure Chemical Industries, Ltd.)), human colon adenocarcinoma-derived cell line HCT116 (manufactured by DS PHARMA BIO MEDICAL, 10% FBS-containing McCoy's 5A Medium (manufactured by Sigma-Aldrich)), human alveolar basal epithelial adenocarcinoma-derived cell line A549 (manufactured by DS PHARMA BIO MEDICAL, 10% FBS-containing DMEM), human prostate cancer-derived cell DU145 (manufactured by ATCC, 10% FBS-containing EMEM). The above-mentioned cells in the logarithmic growth phase were washed with PBS, a 0.25 w/v % trypsin-1 mmol/L EDTA (ethylenediaminetetraacetic acid) solution (manufactured by Wako Pure Chemical Industries, Ltd.) was added, and adherent cells were detached by incubating at 37° C. for 1-5 min. Each medium was added and the mixture was centrifuged. After resuspension in the same medium, each cell was recovered.\n(§2) The aforementioned various cells were suspended in respective deacylated gellan gum-containing or not containing media (deacylated gellan gum concentration was 0.015 w/v %, and 0.020 w/v % for RPMI1640 alone), and seeded in a 96 well low attachment U-bottom plate (manufactured by Corning, deacylated gellan gum-free medium), or a low attachment flat bottom plate (manufactured by Corning, deacylated gellan gum-containing medium) at a cell concentration of 1000-12000 cells/135 μL/well (all 3D culture). After static culture overnight in 37° C., 5% CO2 incubator, a DMSO solution of the compound to be used in the present invention was added to each medium at a final concentration of 5 μM or 10 μM. The amount of each compound solution to be added was 15 μL/well. As a control, a DMSO solution dissolved in a medium was added (DMSO final concentration 0.1%). After continuously culturing in an incubator at 37° C., 5% CO2 for 4 days, WST-8 solution (manufactured by DOJINDO LABORATORIES) was added at 15 μL/well, and the mixture was reacted in the same incubator for 1-2 hr. […] When compared with the compound no-addition (control), one showing a value of not more than 119% as -, one showing a value of not less than 120% as ◯, and one showing a value of not less than 150% as ⊚ are shown in the tenth table."}, "[3]": {"system": "human colon adenocarcinoma-derived cell line HCT116", "assay": "Various human cancer cells-1, 3D culture, WST-8 (Experimental Example 5)", "details": "4 days", "source_text": "as §1, §2"}, "[4]": {"system": "human epithelial-like cell cancer-derived cell line A431", "assay": "Various human cancer cells-1, 3D culture, WST-8 (Experimental Example 5)", "details": "4 days", "source_text": "as §1, §2"}, "[5]": {"system": "human malignant melanoma-derived cell line A375", "assay": "Various human cancer cells-1, 3D culture, WST-8 (Experimental Example 5)", "details": "4 days", "source_text": "as §1, §2"}, "[6]": {"system": "human prostate cancer-derived cell DU145", "assay": "Various human cancer cells-1, 3D culture, WST-8 (Experimental Example 5)", "details": "4 days", "source_text": "as §1, §2"}, "[7]": {"system": "human prostate cancer-derived cell line LNCaP clone FGC", "assay": "Various human cancer cells-1, 3D culture, WST-8 (Experimental Example 5)", "details": "low attachment U-bottom plate (gellan gum-free), 4 days", "source_text": "as §1, §2"}, "[8]": {"system": "human stomach adenocarcinoma-derived cell line AGS", "assay": "Various human cancer cells-1, 3D culture, WST-8 (Experimental Example 5)", "details": "4 days", "source_text": "as §1, §2"}, "[9]": {"system": "human uterus cervix cancer-derived cell line HeLa", "assay": "Various human cancer cells-1, 3D culture, WST-8 (Experimental Example 5)", "details": "low attachment flat bottom plate (gellan gum medium), 10 μM, 4 days", "source_text": "as §1, §2"}, "[10]": {"details": "low attachment U-bottom plate (gellan gum-free), 10 μM"}, "[11]": {"details": "low attachment flat bottom plate (gellan gum medium), 5 μM"}, "[12]": {"details": "low attachment flat bottom plate (gellan gum medium), 10 μM"}, "[13]": {"details": "low attachment U-bottom plate (gellan gum-free), 5 μM"}}}
{"compound": "CCC(=NNC(=O)C(CC)Nc1ccccc1)c1ccc(O)c(C)c1O", "note": "(stereo not shown) [k-1:H-7]", "values": [{"measurement": "relative value of RLU (number of viable cells)", "setting": "[1]; 2D single layer culture, 0.5 μM", "value": 110, "unit": "%"}, {"measurement": "relative value of RLU (number of viable cells)", "setting": "[1]; 2D single layer culture, 1 μM", "value": 105, "unit": "%"}, {"measurement": "relative value of RLU (number of viable cells)", "setting": "[1]; 2D single layer culture, 5 μM", "value": 91, "unit": "%"}, {"measurement": "relative value of RLU (number of viable cells)", "setting": "[1]; 2D single layer culture, 10 μM", "value": 69, "unit": "%"}, {"measurement": "relative value of RLU (number of viable cells)", "setting": "[1]; 2D single layer culture, 20 μM", "value": 47, "unit": "%"}, {"measurement": "relative value of RLU (number of viable cells)", "setting": "[1]; 3D culture (deacylated gellan gum), 0.5 μM", "value": 104, "unit": "%"}, {"measurement": "relative value of RLU (number of viable cells)", "setting": "[1]; 3D culture (deacylated gellan gum), 1 μM", "value": 137, "unit": "%"}, {"measurement": "relative value of RLU (number of viable cells)", "setting": "[1]; 3D culture (deacylated gellan gum), 5 μM", "value": 176, "unit": "%"}, {"measurement": "relative value of RLU (number of viable cells)", "setting": "[1]; 3D culture (deacylated gellan gum), 10 μM", "value": 150, "unit": "%"}, {"measurement": "relative value of RLU (number of viable cells)", "setting": "[1]; 3D culture (deacylated gellan gum), 20 μM", "value": 110, "unit": "%"}, {"measurement": "cell proliferation promoting effect (in words)", "setting": "[1]; single layer culture (2D) of SKOV3 cells", "value": "a favorable cell proliferation promoting effect was not observed"}, {"measurement": "cell proliferation promoting effect (in words)", "setting": "[1]; three-dimensional culture (3D) of SKOV3 cells", "value": "exhibited cell proliferation promoting effect at a wide concentration range"}, {"measurement": "number of viable cells, relative value to control (100%)", "setting": "[2]; [10]", "value": "◯ (one showing a value of not less than 120% as ◯)"}, {"measurement": "number of viable cells, relative value to control (100%)", "setting": "[2]; [11]", "value": "⊙"}, {"measurement": "number of viable cells, relative value to control (100%)", "setting": "[2]; [12]", "value": "⊙"}, {"measurement": "number of viable cells, relative value to control (100%)", "setting": "[3]; [10]", "value": "◯ (one showing a value of not less than 120% as ◯)"}, {"measurement": "number of viable cells, relative value to control (100%)", "setting": "[3]; [11]", "value": "◯ (one showing a value of not less than 120% as ◯)"}, {"measurement": "number of viable cells, relative value to control (100%)", "setting": "[3]; [12]", "value": "⊙"}, {"measurement": "number of viable cells, relative value to control (100%)", "setting": "[4]; [13]", "value": "⊙"}, {"measurement": "number of viable cells, relative value to control (100%)", "setting": "[4]; [10]", "value": "⊙"}, {"measurement": "number of viable cells, relative value to control (100%)", "setting": "[4]; [11]", "value": "⊙"}, {"measurement": "number of viable cells, relative value to control (100%)", "setting": "[4]; [12]", "value": "⊙"}, {"measurement": "number of viable cells, relative value to control (100%)", "setting": "[5]; [10]", "value": "◯ (one showing a value of not less than 120% as ◯)"}, {"measurement": "number of viable cells, relative value to control (100%)", "setting": "[5]; [11]", "value": "◯ (one showing a value of not less than 120% as ◯)"}, {"measurement": "number of viable cells, relative value to control (100%)", "setting": "[6]; [13]", "value": "◯ (one showing a value of not less than 120% as ◯)"}, {"measurement": "number of viable cells, relative value to control (100%)", "setting": "[6]; [10]", "value": "⊙"}, {"measurement": "number of viable cells, relative value to control (100%)", "setting": "[6]; [11]", "value": "⊙"}, {"measurement": "number of viable cells, relative value to control (100%)", "setting": "[6]; [12]", "value": "⊙"}, {"measurement": "number of viable cells, relative value to control (100%)", "setting": "[7]; 5 μM", "value": "⊙"}, {"measurement": "number of viable cells, relative value to control (100%)", "setting": "[7]; 10 μM", "value": "◯ (one showing a value of not less than 120% as ◯)"}, {"measurement": "number of viable cells, relative value to control (100%)", "setting": "[8]; [13]", "value": "◯ (one showing a value of not less than 120% as ◯)"}, {"measurement": "number of viable cells, relative value to control (100%)", "setting": "[8]; [10]", "value": "◯ (one showing a value of not less than 120% as ◯)"}, {"measurement": "number of viable cells, relative value to control (100%)", "setting": "[8]; [12]", "value": "◯ (one showing a value of not less than 120% as ◯)"}, {"measurement": "number of viable cells, relative value to control (100%)", "setting": "[9]", "value": "◯ (one showing a value of not less than 120% as ◯)"}]}
